The values below come from patent US12421499B2, “Method of differentiation of human pluripotent stem cells to monohormonal cells” (Cornell University, priority 2018, dated 2025).

Assay [1] relates to GLIS3−/− PP2-β cells. The experiment in a line: Cell apoptosis rate (cleaved caspase-3+ INS+ cells in INS+ cells) and INS+ cell number, high content imaging. The note with it: for cell apoptosis rate: INS-GFP+ GLIS3−/− PP2-β cells. It counts as cell-based, human. The protocol:
Immunofluorescence staining. Cells were fixed in 4% paraformaldehyde solution (Affymetrix) for 20 min, then blocked and permeabilized in PBS solution containing 5% horse serum and 0.3% Triton for 1 hr at room temperature. The cells were incubated with primary antibodies overnight at 4 C followed by 1 hr incubation with fluorescence-conjugated secondary antibodies (Alexafluor, ThermoFisher Scientific) at RT. For pSMAD2/3 staining, cells were permeabilized with ice-cold methanol at ˜20 C for 10 min after fixation and prior to blocking. The following primary antibodies were used: anti-OCT4 (1:200, Santa Cruz), anti-SOX17 (1:500, R&D), anti-PDX1 (1:500, R&D), anti-SOX9 (1:1000, Millipore), anti-NKX6.1 (1:500, DSHB), anti-NKX2.2 (1:500, DSHB), anti-PAX6 (1:1000, Covance), anti-ISL1 (1:200, DSHB), anti-UCN3 (1:500, Phoenix Pharmaceuticals), anti-NGN3 (1:500, R&D), anti-chromogranin A (1:1000, Immunostar), anti-glucagon (1:2000, Sigma) anti-somatostatin (1:1000, DAKO), anti-ghrelin (1:500, Santa Cruz), anti-insulin (1:500, DAKO) and anti-cleaved caspase-3 (1:1000, BD Biosciences), anti-pSMAD2/3 (1:200, Cell Signaling).
High throughput chemical screening. To perform the high throughput small molecule screening, GLIS3^−/− cells at D26_L were dissociated using Accutase and replated onto 804G-coated 384-well plates at 20,000 cells/80 μl medium/well. After 8 hr, cells were treated at 1 μM and 10 μM with compounds from an in-house library of 300 signaling pathway modulators, an epigenetics library (Cayman Chemical), Prestwick library of approved drugs (FDA, EMA and other agencies), LOPAC (Sigma Aldrich) and the MicroSource library totaling 5000 chemicals. DMSO treatment was used as a negative control. Untreated wells containing WT cells were included as positive control. After 4 days of culture, cells were first stained with 2.5 μg/mL PI and then fixed and stained using antibodies against Insulin (DAKO) and cleaved caspase-3 (BD biosciences). Plates were analyzed using a Molecular Devices ImageXpress High-Content Analysis System. Two-dimensional analysis was used. Compounds inducing lower % cleaved caspase-3 (Z-score<−1.5) and a similar or higher number of INS^+ cells compared to DMSO treated wells were selected as primary hits.

The test system of assay [2] is GLIS3−/− PP2-β cells. The experiment in a line: Cell death rate (PI+ INS+ cells in INS+ cells), propidium iodide staining. It counts as cell-based, human. The note with it: for cell death rate: INS-GFP+ GLIS3−/− PP2-β cells. As to the method: Propium iodide cell viability staining. Cells at D30_L were dissociated using Accutase and replated onto 96-well plates coated with 804-G conditioned medium. Once attached, cells were stained by 2.5 μg mL^−1 propium iodide in DMEM for 12 min, washed once with DMEM and fixed with 4% paraformaldehyde for 20 min. DAPI was used to quantify total number of cells after fixation. Plates were analyzed using a Molecular Devices ImageXpress High-Content Analysis System. Data was quantified using MetaXpress software.

The next assay concerns WT INS-GFP+ PP2-β cells. The experiment in a line: Annexin V apoptosis analysis in wild-type cells. It counts as cell-based, human. The note with it: 10 μM. The protocol:
Annexin V cellular apoptosis analysis. hESC derived cells were dissociated by Accutase and washed with cold PBS, stained with the PE/Annexin V apoptosis detection Kit (BD Bioscience, 559763) or A647-conjugated annexin V (Thermo Fisher Scientific) according to manufacturer's instructions, the samples were the analyzed by flow cytometry (BD Bioscience, FASC ARIA2) within 30 min. To include a positive control for apoptosis, cells were incubated with 10 μM Camptothecin (Sigma Aldrich) or DMSO for 4 hours prior to Annexin V staining.

Assay [3] has as its system GLIS3−/− PP2 cells transplanted under the kidney capsule. As to the kind of experiment: In vivo transplantation and drug treatment, graft apoptosis by immunohistochemistry. On the set-up: species or system SCID-beige mice. Conditions: 15 mg/kg/day intraperitoneal for seven days, vs vehicle. As to the method:
In vivo transplantation and drug treatment. WT and isogenic mutant hESCs at day 24 of differentiation (around 1 million cells) were harvested by cell scraper, mixed with 20 μl Matrigel (Corning) and transplanted under the kidney capsule of 6-8 weeks old male SCID-beige mice. For drug treatment, mice were injected intraperitoneally with 15 mg/kg/day galunisertib or vehicle for seven days. To prepare the injection cocktail, 200 mM galunisertib in DMSO was diluted ˜15 times with a 50:50 mixture of PEG300 (Sigma Aldrich) and saline (APP Pharmaceuticals). All animal work was conducted in agreement with NIH guidelines and approved by the local Institutional Animal Care and Use Committee (IACUC), the Institutional Biosafety Committee (IBC) as well as the Embryonic Stem Cell Research Committee (ESCRO).
Immunohistochemistry. Mouse kidneys with cells grafted under the capsules were washed with PBS, fixed with 4% paraformaldehyde at 4C overnight and transferred to 30% sucrose solution for dehydration. […] The slides were blocked and permeabilized in PBS solution containing 5% horse serum and 0.3% Triton for 1 hr at RT and then incubated with primary antibodies overnight at 4C followed by 1 hr incubation with fluorescence-conjugated secondary antibodies (Alexafluor, ThermoFisher Scientific) at RT. […] Fluorescent images were scored using MetaMorph® image analysis software (Molecular Devices).

A further assay concerns SMAD2/3 phosphorylation. The experiment in a line: Western blot of SMAD2/3 phosphorylation. It counts as cell-based, human. Conditions: 10 μM; GLIS3−/− cells at D30_L; vs DMSO. The protocol:
Western blot analysis. Whole-cell lysates were generated by scraping cultures on day 24 of differentiation in cold PBS, and re-suspending in complete lysis buffer (20 mM Tris pH 7.0, 150 mM NaCl, 50 mM NaF, 1% NP-40 substitute, and Thermo Scientific HALT protease inhibitor cocktail 1:100). Lysates were loaded onto 10% NuPage Bis-Tris gels (Invitrogen), resolved by electrophoresis, and transferred to PVDF membranes (Bio-Rad). Membranes were blocked with 5% bovine serum albumin in TBS+ 0.05% Tween and probed overnight with primary antibody. The antibodies were rabbit anti-phospho-SMAD2/3 (1:250, Cell Signaling), rabbit anti-SMAD2/3 XP (1:5000, Cell Signaling), and mouse anti-β-actin (1:50000, Sigma A1978). Membranes were washed and incubated for 1 hr with HRP-conjugated secondary antibody (Bio-Rad) in 5% milk-TBS-0.05% Tween and developed using SuperSignal West Pico (Thermo Scientific) or Immobilon (Millipore) ECL substrate.

Where [4] appears, read: 10 μM, GLIS3−/− cells at D30_L, vs DMSO.

Take `Cc1cccc(-c2nn(C(=S)Nc3ccccc3)cc2-c2ccnc3ccccc23)n1` [A83-01]: the cell apoptosis rate result in the assay with GLIS3−/− PP2-β cells [1] (10 μM) was “significantly decrease”. In the assay on GLIS3−/− PP2-β cells [2] (10 μM), the cell death rate result is recorded as “significantly decrease”.

In the case of `c1ccc(-c2[nH]ncc2-c2ccnc3ccccc23)nc1` [LY-364947], the cell apoptosis rate result in the assay with GLIS3−/− PP2-β cells [1] (10 μM) is on record as “significantly decrease”. The cell death rate result in the assay with GLIS3−/− PP2-β cells [2] (10 μM) was “significantly decrease”.

Take `NC(=O)c1ccc(-c2nc(-c3ccccn3)c(-c3ccc4c(c3)OCO4)[nH]2)cc1` [SB431642]: the cell apoptosis rate result in the assay with GLIS3−/− PP2-β cells [1] (1 μM) was “significantly decrease”. For the same compound, the cell death rate entry in the assay on GLIS3−/− PP2-β cells [2] (1 μM) is listed as “significantly decrease”.

On to `Cc1cccc(-c2[nH]c(C(C)(C)C)nc2-c2ccc3nccnc3c2)n1` [SB525334], for which the cell apoptosis rate entry in the assay with GLIS3−/− PP2-β cells [1] (1 μM) is recorded as “significantly decrease”. Moreover, the cell death rate result with GLIS3−/− PP2-β cells [2] (1 μM) was “significantly decrease”.

The term IC50 denotes the concentration needed to halve the response being measured. `Cc1cccc(-c2nn3c(c2-c2ccnc4ccc(C(N)=O)cc24)CCC3)n1` [galunisertib]: the “cell apoptosis of WT INS+ cells” value with WT INS-GFP+ PP2-β cells is “does not affect”. For the same compound, the “cell apoptosis rate in the transplanted cells (cleaved caspase-3+/STEM121+ cells in STEM121+ cells)” value in assay [3] (cells pre-treated with 10 μM for 16 hr) is “significantly decreases”. Further, the “cell apoptosis rate in INS+ and PDX1+ cells in the grafts” value in assay [3] is reported as “significantly decreases”. In addition, the “increased SMAD2/3 phosphorylation” value in the assay on SMAD2/3 phosphorylation is “inhibits”. In addition, the “number of INS+ cells” value in the assay with GLIS3−/− PP2-β cells [1] (10 μM, GLIS3−/− PP2-β cells, normalized to DMSO) is reported as “increases”. For the same compound, the cell apoptosis result in the assay on GLIS3−/− PP2-β cells [1] (setting [4]) is reported as “significantly reduces”. Also, in the assay with GLIS3−/− PP2-β cells [1] (Homo sapiens, dose-dependent, inhibitory curve FIG. 4c, read-out: IC50, rescue of loss of GLIS3-induced pancreatic β-cell apoptosis), the IC50 is 1140 nM. For the same compound, in the assay with GLIS3−/− PP2-β cells [2] (setting [4]), the cell death result is on record as “significantly reduces”.
